Values quoted from earlier work as cited in US7935730B2, “Method of enhancing reproductive function of mammals by feeding of conjugated linoleic acids” (Cornell Research Foundation, Inc., priority 2006, dated 2011).

What was measured:
young rodents = conditions: proposed
[1] = in vivo

## CCCCCC/C=C/C=C\CCCCCCCC(=O)O [cis-9, trans-11 CLA]
Young rodents
  feed efficiency and growth: enhance
[1]
  effect on milk and body fat: no effect

## CCCCC/C=C\C=C\CCCCCCCCC(=O)O [trans-10, cis-12 CLA]
[1]
  effect on milk and body fat: reduction
